This test concerns the target T1, hS1P1 (Homo sapiens, UniProt P21453).
T1 construct: expressed in transfected cells
The test is described as follows: hS1P1 EC50 (S1P receptor Ca2+ flux protocol, FLIPR, CHO K1 Gqi5 cells). As to conditions: several values per compound = repeat determinations as printed. The test is classed as cell-based. The protocol: S1P receptor activity may also be measured by an SIP receptor (e.g., hS1P1, hS1P3, rS1P1, rS1P3 and parental cell) Ca^2+ Flux protocol as described below: • 1. Material • a. FLIPR buffer: 1x HBSS; 10mM HEPES • b. Cell growth media: • i. human and rat S1P1 and S1P3: F12-Ham's media; 10% FBS (qualified); 1x Pen/Strep/Glu; 300ug/mL Hygromycin; 400ug/mL Geneticin ii. Parental cell: human and rat S1P and S1P3: F12-Ham's media; 10% FBS (qualified); 1x Pen/Strep/Glu; 300ug/mL Hygromycin; • c. Cell seeding media; F12-Ham's media; 10% FBS (Charcoal/dextran stripped); 1x Pen/Strep/Glu; • d. Cell dissociation buffer: Versene from Invitrogen • e. Agonist (SIP) dissolving buffer: 0.4% (w/v) fatty-acid free BSA (Sigma # A8806) in FLIPR buffer • f. FLIPR dye: BD PBX Calcium assay kit; Cat#641077 is composed of Calcium indicator (Cat#850000) and 100x PBX signal enhancer (cat#850001). The 100x PBX signal enhancer is diluted into FLIPR buffer 1:100 and the calcium indicator is then added at 1:1000 ratio. • g. Cell plates (96-well): Greiner Cat#655090 • h. Compound plates (96-well): Costar #3365 • i. S1P stock solution preparation: S1P is purchased from CalBioChem (Catalog # 970471; 1mg vial; custom prep using methanol, & nitrogen gas drying inside glass vial; Storage @ -20°C). Dissolve 1 vial of SIP into 26.4ml of agonist dissolving buffer in a 50ml centrifuge tube; Remove label from bottle of SIP, open and drop entire bottle into tube. Sonicate at 37° for ½ hour. Clear solution of 100µM will result. This stock solution is aliquoted and stored at -80C • 2. Cell line maintenance • a. V5 tags were added at the N-terminus of hS1P1, hS1P3, rS1P1 and rS1P3. All four genes were transfected into CHO K1 cells which stably express Gqi5. • b. hS1P1 and hS1P3 were established as stable clones and rS1P1 and rS1P3 were sorted by anti V5 tag and established as stable pools after sorting. • c. Parental cell line CHO/K1 Gqi5 is used as the control. • d. All the cells are maintained in cell growth media and splitted twice a week using Versene. • e. All the cell lines are used under passage 30. • 3. Assay protocol • a. Cell seeding: Cells are lifted from the flask by Versene and seeded in cell plates at 50K/well in cell seeding media. Cells are grown overnight at 37 degree. • b. Cell loading: Cell seeding media is discarded. Cells are loaded with 50ul of FLIPR dye at RT for 90 min. Signal is stable for up to 5 h after dye loading. • c. Agonist (S1P) preparation: Frozen stock of S1P is thawed out and sonicated at 37c for 30 minutes every time before use. The stock is then diluted into FLIPR buffer at proper concentration. • d. Compound preparation: Compounds are dissolved in DMSO. A 3x, 10 point dilution of the compounds are carried out in DMSO. Then the compounds are diluted into assay buffer133x so that the DMSO concentration is 0.75%. • e. Activity measurement: The fluorescence signal change of the cells upon compound addition is monitored in FLIPRtetra. 25ul of compound is transferred into the cell plates (50ul of FLIPR dye; DMSO concentration: 0.25%). Signal is recorded for 90sec after compound addition. Then 50ul of 500nM SIP is added in the cell plate, and signal is recorded for 90 seconds upon addition. • 4. Data analysis • a. Peak value is calculated for each compound/S1P addition • b. The peak value of S1P at 200nM is used as high control (100%), and the peak value of buffer only is used as low control (0%). • c. Data is normalized against high and low controls using the following equation: POC_S = 100*(RAW-LO)/(HI-LO) [formula] • d. Peak value is plotted against the concentration of compound. • e. Curve is fitted using the 4 parameter fit: Y = (A+(B/(1+(((x/C))^(∧)D)))) [formula] where: Y is POC_S (or POC) • X is compound concentration • A is the minimum (EC50min or IC50min) • B is the maxmum (EC50max or IC50max) • C is the inflection point (EC50IP or IC50IP) • D is the hill slope (EC50 slope or IC50 slope).

What is called EC50 is the concentration that produces a half-maximal response. The low end stands for a more potent agent, the high end for a less potent agent.

T1 sequence (P21453 whole entry): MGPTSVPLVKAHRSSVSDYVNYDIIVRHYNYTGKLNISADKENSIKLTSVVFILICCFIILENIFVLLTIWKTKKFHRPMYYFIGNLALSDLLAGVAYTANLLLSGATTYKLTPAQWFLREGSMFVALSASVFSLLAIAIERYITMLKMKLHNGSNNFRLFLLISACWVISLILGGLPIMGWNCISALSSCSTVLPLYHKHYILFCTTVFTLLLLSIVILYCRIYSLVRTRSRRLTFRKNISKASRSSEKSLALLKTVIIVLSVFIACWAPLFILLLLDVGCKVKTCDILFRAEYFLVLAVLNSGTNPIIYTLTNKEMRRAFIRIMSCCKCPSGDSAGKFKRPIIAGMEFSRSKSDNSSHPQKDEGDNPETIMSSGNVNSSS

Compound `O=C(O)C1CN(Cc2ccc(-c3cc4cc(Sc5ccccc5)ccc4o3)c(F)c2)C1` [Reference Compound 64] gave an EC50 of 142 nM.

Consider `O=C(O)C1CN(Cc2ccc(-c3cc4cc([S+]([O-])c5ccccc5)ccc4o3)c(F)c2)C1` (stereo not drawn) [Reference Compound 65], for which the EC50 was 67 nM. Against the preceding compound, the EC50 is about 2.1-fold lower. The result for `O=C(O)C1CN(Cc2ccc(-c3cc4cc(COCC5CC5)ccc4o3)c(F)c2)C1` [Reference Compound 66] reads 75 nM; that for `O=C(O)C1CN(Cc2ccc(-c3cc4cc(COC5CCC5)ccc4o3)c(F)c2)C1` [Reference Compound 67, 1-(4-(5-(Cyclobutoxymethyl)benzofuran-2-yl)-3-fluoro-benzyl)azetidine-3-carboxylic acid], 25 nM; that for `O=C(O)C1CN(Cc2ccc(-c3cc4ccccc4o3)c(F)c2)C1` [Reference Compound 68, 1-(4-(benzofuran-2-yl)-3-fluoro-benzyl)azetidine-3-carboxylic acid], 706 nM. The same measure for `O=C(O)C1CN(Cc2ccc(-c3cc4cc(COc5ccccc5)ccc4o3)c(F)c2)C1` [Reference Compound 69, 1-(3-Fluoro-4-(5-(phenoxymethyl)benzofuran-2-yl)benzyl)azetidine-3-carboxylic acid]: 87 nM; for `O=C(O)C1CN(Cc2ccc(-c3cc4cc(COC5CCCCC5)ccc4o3)c(F)c2)C1` [Reference Compound 70]: 91 nM; for `O=C(O)C1CN(Cc2ccc(-c3cc4cc(Cc5ccc(F)cc5)ccc4o3)c(F)c2)C1` [Reference Compound 73, 1-(3-fluoro-4-(5-(4-fluorobenzyl)benzofuran-2-yl)benzyl)azetidine-3-carboxylic acid]: 53 nM. As for `O=C(O)C1CN(Cc2ccc(-c3cc4cc(CC5CCCCC5)ccc4o3)c(F)c2)C1` [Reference Compound 74, 1-(4-(5-(Cyclohexylmethyl)benzofuran-2-yl)-3-fluorobenzyl)azetidine-3-carboxylic acid], the EC50 is 400 nM. Compared with the last compound, the EC50 is about 7.5-fold higher. The result for `O=C(O)C1CN(Cc2ccc(-c3cc4cc(Cc5ccccc5F)ccc4o3)c(F)c2)C1` [Reference Compound 75, 1-(3-Fluoro-4-(5-(2-fluorobenzyl)benzofuran-2-yl)benzyl)azetidine-3-carboxylic acid] reads 129 nM; that for `O=C(O)C1CN(Cc2ccc(-c3cc4cc(Cc5cccc(F)c5)ccc4o3)c(F)c2)C1` [Reference Compound 76, 1-(3-Fluoro-4-(5-(3-fluorobenzyl)benzofuran-2-yl)benzyl)azetidine-3-carboxylic acid], 169 nM; that for `O=C(O)C1CN(Cc2ccc(-c3cc4cc(Oc5ccccc5)ccc4o3)c(F)c2)C1` [Reference Compound 77, 1-(3-Fluoro-4-(5-phenoxybenzofuran-2-yl)benzyl)azetidine-3-carboxylic acid], 13 nM. On to `Fc1cc(CN2CC(c3nn[nH]n3)C2)ccc1-c1cc2cc(Cc3ccccc3)ccc2o1` [Reference Compound 78, 5-(1-(4-(5-Benzylbenzofuran-2-yl)-3-fluorobenzyl)azetidin-3-yl)-2H-tetrazole], for which the half-maximal effective concentration (EC50) came out at 2090 nM.

`O=C(O)C1CN(Cc2ccc(-c3ccc4oc(Cc5ccccc5)cc4c3)c(F)c2)C1` [Reference Compound 80, 1-(4-(2-Benzylbenzofuran-5-yl)-3-fluorobenzyl)azetidine-3-carboxylic acid]: the response was half-maximal at 59 nM (EC50). The same measure for `O=C(O)C1CN(Cc2ccc(-c3cc4cc(Cc5ccccc5)ccc4s3)c(F)c2)C1` [Reference Compound 81, 1-(4-(5-Benzylbenzo[b]thiophen-2-yl)-3-fluorobenzyl)azetidine-3-carboxylic acid]: 11 nM; for `CC(CNCc1ccc(-c2cc3cc(Cc4ccccc4)ccc3o2)c(F)c1)C(=O)O` (stereo not drawn) [Reference Compound 82, 3-(4-(5-Benzylbenzofuran-2-yl)-3-fluorobenzylamino)-2-methylpropanoic acid]: 1300 nM. Consider `NC(=O)CC(NCc1ccc(-c2cc3cc(Cc4ccccc4)ccc3o2)c(F)c1)C(=O)O` (stereo not drawn) [Reference Compound 83, 4-Amino-2-(4-(5-benzylbenzofuran-2-yl)-3-fluorobenzylamino)-4-oxobutanoic acid], for which the EC50 came to 2300 nM. The result for `O=C(O)C1CN(Cc2cnc(-c3cc4cc(Cc5ccccc5)ccc4o3)c(F)c2)C1` [Reference Compound 84, 1-((6-(5-Benzylbenzofuran-2-yl)-5-fluoropyridin-3-yl)methyl)azetidine-3-carboxylic acid] reads 470 nM; that for `NC(=O)C(CC(=O)O)NCc1ccc(-c2cc3cc(Cc4ccccc4)ccc3o2)c(F)c1` (stereo not drawn) [Reference Compound 85, 4-Amino-3-(4-(5-benzylbenzofuran-2-yl)-3-fluorobenzylamino)-4-oxobutanoic acid], 1880 nM; that for `Cc1ccc(Cc2ccc3oc(-c4ccc(CN5CC(C(=O)O)C5)cc4F)cc3c2)cc1` [Reference Compound 86, 1-(3-Fluoro-4-(5-(4-methylbenzyl)benzofuran-2-yl)benzyl)azetidine-3-carboxylic acid], 12 nM.

Regarding `O=C(O)C1CN(Cc2ccc(-n3cc4cc(Cc5ccccc5)ccc4n3)c(F)c2)C1` [Reference Compound 87, 1-(4-(5-Benzyl-2H-indazol-2-yl)-3-fluorobenzyl)azetidine-3-carboxylic acid], the EC50 was 94 nM. The result for `O=C(O)C1(O)CN(Cc2ccc(-c3cc4cc(Cc5ccccc5)ccc4o3)c(F)c2)C1` [Reference Compound 88, 1-((4-(5-Benzylbenzofuran-2-yl)-3-fluorophenyl)methyl)-3-hydroxyazetidine-3-carboxylic acid] reads 105 nM; that for `O=C(O)C1(O)CN(Cc2ccc(-c3nc4cc(Cc5ccccc5)ccc4s3)c(F)c2)C1` [Reference Compound 89, 1-((4-(5-Benzylbenzo[d]thiazol-2-yl)-3-fluorophenyl)methyl)-3-hydroxyazetidine-3-carboxylic acid], 27 nM. The result for `CC(c1ccccc1)c1ccc2oc(-c3ccc(CN4CC(C(=O)O)C4)cc3F)cc2c1` (stereo not drawn) [Reference Compound 90, 1-((3-Fluoro-4-(5-(1-phenylethyl)benzofuran-2-yl)phenyl)methyl)azetidine-3-carboxylic acid] reads 99 nM.

The compound `O=C(O)C1CN(Cc2ccc(-c3cc4cc(C(F)(F)c5ccccc5)ccc4o3)c(F)c2)C1` [Reference Compound 91, 1-((4-(5-(Difluoro(phenyl)methyl)benzofuran-2-yl)-3-fluorophenyl)methyl)azetidine-3-carboxylic acid] gave an EC50 of 13 nM.

With `O=C(O)C1CN(Cc2ccc(-c3cc4ccc(Cc5ccccc5)cc4o3)c(F)c2)C1` [Reference Compound 92, 1-((4-(6-Benzylbenzofuran-2-yl)-3-fluorophenyl)methyl)azetidine-3-carboxylic acid], the EC50 worked out at 7 nM. `O=C(O)C1CN(Cc2ccc(-c3cc4cc(Cc5ccccn5)ccc4o3)c(F)c2)C1` [Reference Compound 93, 1-((3-Fluoro-4-(5-(pyridin-2-ylmethyl)benzofuran-2-yl)phenyl)methyl)azetidine-3-carboxylic acid]: the midpoint of the response, the EC50, lay at 31 nM.

The values above are taken from EP2364976B1, “S1P receptor modulating compounds and use thereof” (EPIX Pharmaceuticals, Inc., priority 2007, dated 2007).
